Measured values published in patent US20190085024A1, “Alpha-Ketoamide Inhibitors Of Cysteine Proteases” (Phelix Therapeutics, priority 2017, published 2019).
*1 amine or outer side, *2 acyl side, *3 side chain or, on linkers, in order; H or OH if unused. Where a SMILES comes first, the peptide text is derived from it. [ ]: non-standard residue; d: D form. The star is where a group is joined. 2Nal = N[CH](Cc1ccc2ccccc2c1)C(=O)O; X2 = C=CCOCC(N[*:1])C(=O)C(=O)[*:2]; Ser(allyl) = C=CCOC[CH](N)C(=O)O; PhAc = O=C(Cc1ccccc1)*; Allyl = C=CC*

Columns and labels:
Cathepsin L = Cathepsin L (Homo sapiens, UniProt P07711); experiment: Cathepsin L enzyme assay; type: biochemical; conditions: Ki by Morrison equation; pH 5.5, substrate Z-Phe-Arg-Amc; read-out: Cat L
Text: Two wells contained DMSO only for controls.
Velocity was converted to μM/sec.

Calpain = Calpain enzyme assay; type: biochemical; conditions: Ki by Morrison equation; pH 7.5, 5 mM CaCl2
Cathepsin B = Cathepsin B (Homo sapiens, UniProt P07858); experiment: Cathepsin B enzyme assay; conditions: Cat B (μM), Ki by Morrison equation; pH 6.0, substrate Z-Phe-Arg-Amc
MERS WT = experiment: microbe, parasite or virus in culture; type: cell-based; conditions: Middle East respiratory syndrome-related coronavirus, read-out: MERS WT (μM)
[1] = tested on: EBOV WT (Ebola Wild Type); experiment: microbe, parasite or virus in culture; type: cell-based; conditions: Zaire ebolavirus, read-out: EBOV WT (μM) (Ebola Wild Type)
Cat S = Cat S (Homo sapiens, UniProt P25774); experiment: Cat S inhibition; type: biochemical
Cat K = biological target: T1, Cat K (Homo sapiens, UniProt P43235); experiment: Cat K inhibition; type: biochemical
T1 sequence (P43235 115-329): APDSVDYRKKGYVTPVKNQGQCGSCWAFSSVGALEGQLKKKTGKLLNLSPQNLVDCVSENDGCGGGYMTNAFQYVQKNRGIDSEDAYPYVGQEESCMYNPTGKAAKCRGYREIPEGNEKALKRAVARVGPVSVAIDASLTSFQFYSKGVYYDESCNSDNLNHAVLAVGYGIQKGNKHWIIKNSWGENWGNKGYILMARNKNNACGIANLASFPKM

Cathepsin L, sequence (P07711 114-333, species assumed): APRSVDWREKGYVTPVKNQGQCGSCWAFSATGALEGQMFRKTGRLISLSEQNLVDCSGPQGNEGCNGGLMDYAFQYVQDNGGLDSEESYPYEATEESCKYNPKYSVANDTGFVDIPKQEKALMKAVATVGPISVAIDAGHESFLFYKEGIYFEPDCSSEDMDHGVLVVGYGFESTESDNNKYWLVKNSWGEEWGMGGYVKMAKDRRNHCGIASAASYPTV
Cat S, sequence (P25774 115-331): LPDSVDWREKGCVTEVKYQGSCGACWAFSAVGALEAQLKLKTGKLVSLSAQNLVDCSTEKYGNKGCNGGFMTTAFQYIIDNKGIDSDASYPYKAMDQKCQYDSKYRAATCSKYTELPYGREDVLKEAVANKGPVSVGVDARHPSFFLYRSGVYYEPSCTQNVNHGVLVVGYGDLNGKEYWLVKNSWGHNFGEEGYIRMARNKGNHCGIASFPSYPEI

SMILES	Ki (Cathepsin L)	Ki (Calpain)	Ki (Cathepsin B)	IC50 (MERS WT)	IC50 [1]	Ki (Cat S)	Ki (Cat K)
CC(C)CC(NC(=O)Cc1ccccc1)C(=O)NC(C)C(=O)C(=O)NC(C)C(=O)NC(C)(C)C(N)=O (stereo not drawn) [PHELIX183, N-(4-((1-((1-amino-2-methyl-1-oxopropan-2-yl)amino)-1-oxopropan-2-yl)amino)-3,4-dioxobutan-2-yl)-4-methyl-2-(2-phenylacetamido)pentanamide]	195 nM	153 nM	7.74 µM	407 µM	29.1 µM		
CC(C)CC(NC(=O)OCc1ccccc1)C(=O)NC(C)C(=O)C(=O)NCCC(=O)NC(Cc1cccc(C#N)c1)C(N)=O (stereo not drawn) [PHELIX185, benzyl (1-((4-((3-((1-amino-3-(3-cyanophenyl)-1-oxopropan-2-yl)amino)-3-oxopropyl)amino)-3,4-dioxobutan-2-yl)amino)-4-methyl-1-oxopentan-2-yl)carbamate]	102 nM	68.4 nM	2.1 µM	> 10 µM	13.3 µM		
CC(C)CC(NC(=O)OCc1ccccc1)C(=O)NC(C)C(=O)C(=O)N1CCC(C(=O)NC(Cc2ccccc2)C(N)=O)CC1 (stereo not drawn) [PHELIX186, benzyl (1-((4-(4-((1-amino-1-oxo-3-phenylpropan-2-yl)carbamoyl)piperidin-1-yl)-3,4-dioxobutan-2-yl)amino)-4-methyl-1-oxopentan-2-yl)carbamate]	4320 nM	18100 nM	60 µM	> 10 µM	57.5 µM		
CC(C)CC(NC(=O)OCc1ccccc1)C(=O)NC(C)C(=O)C(=O)NC(Cc1ccncc1)C(N)=O (stereo not drawn) [PHELIX198, benzyl (1-((4-((1-amino-1-oxo-3-(pyridin-4-yl)propan-2-yl)amino)-3,4-dioxobutan-2-yl)amino)-4-methyl-1-oxopentan-2-yl)carbamate]	33.9 nM	22 nM	7.3 µM	> 10 µM	4.03 µM		
C=CCOCC(NC(=O)Cc1ccccc1)C(=O)NC(CC(C)C)C(=O)NC(COCC=C)C(=O)C(=O)NCC(=O)NC(Cc1ccc2ccccc2c1)C(N)=O (stereo not drawn) [PHELIX200, 2-(3-(allyloxy)-2-(2-phenylacetamido)propanamido)-N-(1-(allyloxy)-4-((2-((1-amino-3-(naphthalen-2-yl)-1-oxopropan-2-yl)amino)-2-oxoethyl)amino)-3,4-dioxobutan-2-yl)-4-methylpentanamide] (PhAc-[Ser(allyl)]L[X2]G[2Nal]-NH2; configuration not given here)	1.51 nM	6.57 nM	0.0881 µM	> 10 µM	6.4 µM		
C=CCOCC(NC(=O)C(CC(C)C)NC(=O)C(Cc1ccc(OCC=C)cc1)NC(=O)Cc1ccccc1)C(=O)C(=O)NCC(=O)NC(Cc1ccc2ccccc2c1)C(N)=O (stereo not drawn) [PHELIX202, N-(1-(allyloxy)-4-((2-((1-amino-3-(naphthalen-2-yl)-1-oxopropan-2-yl)amino)-2-oxoethyl)amino)-3,4-dioxobutan-2-yl)-2-(3-(4-(allyloxy)phenyl)-2-(2-phenylacetamido)propanamido)-4-methylpentanamide] (PhAc-Y(Allyl)L[X2]G[2Nal]-NH2; configuration not given here)	24 nM	25.3 nM	0.692 µM	> 10 µM	> 10 µM		
CC(NC(=O)C(Cc1cccnc1)NC(=O)Cc1ccccc1)C(=O)C(=O)NC(Cc1ccccc1)C(=O)NC(C)(C)C(N)=O (stereo not drawn) [PHELIX211, N-(1-((1-amino-2-methyl-1-oxopropan-2-yl)amino)-1-oxo-3-phenylpropan-2-yl)-2-oxo-3-(2-(2-phenylacetamido)-3-(pyridin-3-yl)propanamido)butanamide]	218 nM	> 10000 nM	0.532 µM	> 10 µM	209 µM		
CC(NC(=O)[C@H](Cc1ccccn1)NC(=O)Cc1ccccc1)C(=O)C(=O)N[C@@H](Cc1ccccc1)C(=O)N[C@@H](Cc1ccccc1)C(N)=O (stereo partly drawn) [PHELIX219, N-(1-((1-amino-1-oxo-3-phenylpropan-2-yl)amino)-1-oxo-3-phenylpropan-2-yl)-2-oxo-3-(2-(2-phenylacetamido)-3-(pyridin-2-yl)propanamido)butanamide]	2910 nM	> 10000 nM	7.52 µM	> 10 µM	> 10 µM		
CC(NC(=O)C(Cc1ccccc1)NC(=O)c1ccccc1F)C(=O)C(=O)NC(Cc1ccccc1)C(=O)NC(C)(C)C(N)=O (stereo not drawn) [PHELIX224, N-(1-((4-((1-((1-amino-2-methyl-1-oxopropan-2-yl)amino)-1-oxo-3-phenylpropan-2-yl)amino)-3,4-dioxobutan-2-yl)amino)-1-oxo-3-phenylpropan-2-yl)-2-fluorobenzamide]	45.7 nM	> 10000 nM	0.422 µM	> 10 µM	11 µM	33.2 nM	
C=CCOCC(NC(=O)C(=O)C(COCC=C)NC(=O)C(CC(C)C)NC(=O)OCc1ccccc1)C(=O)NC(Cc1ccc2ccccc2c1)C(N)=O (stereo not drawn) [PHELIX228, benzyl (1-((1-(allyloxy)-4-((3-(allyloxy)-1-((1-amino-3-(naphthalen-2-yl)-1-oxopropan-2-yl)amino)-1-oxopropan-2-yl)amino)-3,4-dioxobutan-2-yl)amino)-4-methyl-1-oxopentan-2-yl)carbamate]	0.08 nM	25.3 nM	0.276 µM		3.02 µM		
CC(NC(=O)C(Cc1ccccc1)NC(=O)Cc1ccccc1)C(=O)C(=O)NC(Cc1ccccc1)C(=O)NC(C)(C)C(=O)NCCc1ccccc1 (stereo not drawn) [PHELIX230, N-(1-((2-methyl-1-oxo-1-(phenethylamino)propan-2-yl)amino)-1-oxo-3-phenylpropan-2-yl)-2-oxo-3-(3-phenyl-2-(2-phenylacetamido)propanamido)butanamide]	6.78 nM	> 10000 nM	0.236 µM			11.5 nM	310 nM
CC(NC(=O)C(Cc1ccccc1)NC(=O)Cc1ccccc1)C(=O)C(=O)NC(Cc1ccccc1)C(=O)NC(C)(C)C(=O)NCCN1CCOCC1 (stereo not drawn) [PHELIX231, N-(1-((2-methyl-1-((2-morpholinoethyl)amino)-1-oxopropan-2-yl)amino)-1-oxo-3-phenylpropan-2-yl)-2-oxo-3-(3-phenyl-2-(2-phenylacetamido)propanamido)butanamide]	13.7 nM	3790 nM	2.3 µM			200 nM	4890 nM
CC(C)CC(=O)NC(Cc1ccccc1)C(=O)NC(C)C(=O)C(=O)NC(Cc1ccccc1)C(=O)NC(C)(C)C(N)=O (stereo not drawn) [PHELIX235, N-(1-((1-amino-2-methyl-1-oxopropan-2-yl)amino)-1-oxo-3-phenylpropan-2-yl)-3-(2-(3-methylbutanamido)-3-phenylpropanamido)-2-oxobutanamide]	236 nM	> 10000 nM	0.644 µM			28.9 nM	
CCCCC(=O)NC(Cc1ccccc1)C(=O)NC(C)C(=O)C(=O)NC(Cc1ccccc1)C(=O)NC(C)(C)C(N)=O (stereo not drawn) [PHELIX236, N-(1-((4-((1-((1-amino-2-methyl-1-oxopropan-2-yl)amino)-1-oxo-3-phenylpropan-2-yl)amino)-3,4-dioxobutan-2-yl)amino)-1-oxo-3-phenylpropan-2-yl)pentanamide]	1720 nM	> 10000 nM	> 10 µM			260 nM	
CC(NC(=O)C(Cc1ccccc1)NC(=O)Cc1ccccc1)C(=O)C(=O)NC(Cc1ccc(-c2ccccc2)cc1)C(=O)NC(C)(C)C(N)=O (stereo not drawn) [PHELIX241, N-(3-([1,1′-biphenyl]-4-yl)-1-((1-amino-2-methyl-1-oxopropan-2-yl)amino)-1-oxopropan-2-yl)-2-oxo-3-(3-phenyl-2-(2-phenylacetamido)propanamido)butanamide]	1360 nM	> 10000 nM	> 10 µM			2740 nM	
CCCCC(NC(=O)C(=O)C(C)NC(=O)C(Cc1ccccc1)NC(=O)Cc1ccccc1)C(=O)NC(C)(C)C(N)=O (stereo not drawn) [PHELIX242, N-(1-amino-2-methyl-1-oxopropan-2-yl)-2-(2-oxo-3-(3-phenyl-2-(2-phenylacetamido)propanamido)butanamido)hexanamide]	7520 nM	> 10000 nM	> 10 µM			555 nM	
CCC(C)C(NC(=O)C(CC(C)C)NC(=O)C(Cc1ccccc1)NC(=O)OCc1ccccc1)C(=O)C(=O)NC(CCCNC(=N)N)C(N)=O (stereo not drawn) [PHELIX268, benzyl (1-amino-10-(sec-butyl)-6-carbamoyl-1-imino-13-isobutyl-8,9,12,15-tetraoxo-17-phenyl-2,7,11,14-tetraazaheptadecan-16-yl)carbamate]	0.95 nM	10.6 nM	0.171 µM	> 30 µM			
C=CCOC(=O)NCCCCC(NC(=O)C(=O)C(NC(=O)C(CC(C)C)NC(=O)C(Cc1ccccc1)NC(=O)OCc1ccccc1)C(C)CC)C(N)=O (stereo not drawn) [PHELIX269, benzyl (15-(sec-butyl)-11-carbamoyl-18-isobutyl-5,13,14,17,20-pentaoxo-22-phenyl-4-oxa-6,12,16,19-tetraazadocos-1-en-21-yl)carbamate]	4.13 nM	4.34 nM	0.763 µM	> 30 µM			
